Source: patent US9212204B2, “Treatment of rett syndrome using glycyl-L-2-methylprolyl-L-glutamic acid” (priority 2011, dated 2015)
Non-standard residues stand in square brackets, D forms with d. Residues, ends and D or L forms follow the SMILES beside them. αMeP = C[C@@]1(C(=O)O)CCCN1

System: RTT iPSC-derived neurons
Test: In vitro human model of Rett Syndrome, iPSC-derived neurons
Type: cell-based
Set-up: glutamatergic synapse numbers: dose or concentration left out as unconfirmed
From the text: To test the effects of G-2-MePE on neuronal morphology, we used an in vitro model of RTT described in Marchetto et al., A model for neural development and treatment of Rett syndrome using human induced pluripotent stem cells, Cell 143:527-539 (2010) (including supplemental information). The model uses induced pluripotent stem cells (iPSCs) generated from fibroblasts of human RTT patients carrying different MeCP2 mutations.
RTT fibroblasts (carrying 4 distinct MeCP2 mutations) and control fibroblasts are generated from explants of dermal biopsies. The shRNA against target MeCP2 gene is cloned into the LentiLox3.7 lentivirus vector (as described in Marchetto et al.). The fibroblasts are infected with retroviral reprogramming vectors (Sox2, Oct4, c-Myc and Klf4), Two days after infection, fibroblasts are plated on mitotically inactivated mouse embryonic fibroblasts with hESC medium. After 2 weeks, iPSC colonies that emerge from the background of fibroblasts are manually picked and transferred to feeder-free conditions on matrigel-coated dishes (BD) using embryonic stem cell culture media mTeSR™ (Stem Cell Technologies) and passaged manually. Gene expression profiles of the generated clones are measured using human genome Affymetrix Gene Chip™ arrays to confirm that reprogramming is successful.
To obtain neural progenitor cells (NPCs), embryoid bodies (EBs) are formed by mechanical dissociation of cell clusters and plating onto low-adherence dishes in hESC medium without FGF2 for 5-7 days. After that, EBs are plated onto poly-ornithine/laminin-coated dishes in DMEM/F12 plus N2 medium (serum-free supplement for growth and expression of post-mitotic cells). […]
Cells are fixed in 4% paraformaldehyde and permeabilized with 0.5% Triton-X100 in PBS. […] Fluorescent signals are detected using a Zeiss inverted microscope and images are processed with Photoshop CS3. The following primary antibodies are used: TRA-1-60, TRA-1-81 (1:100), Nanog and Lin28 (1:500), human Nestin (1:100), Tuj-1 (1:500), Map2 (1:100); meCP2 (1:1000; VGLUT1 (1:200), Psd95 (1:500), GFP (1:200), Sox1 (1:250), Mushasil (1:200) and me3H3K27 (1:500). Cell soma size is measured using suitable software (e.g. ImageJ) after identification of neurons using the Syn::EGFP™. The morphologies of neuronal dendrites and spines are studied from an individual projection of z-stacks optical sections and scanned at 0.5 um increments that correlate with the resolution valued at z-plane. Each optical section is the result of 3 scans at 500 lps followed by Kalman filtering. For synapse quantification, images are taken by a z-step of 1 um using Biorad radiance 2100™ confocal microscope. Synapse quantification is done blinded to genotype. Only VGLUT1 puncta along Map2-positive processes are counted. […]

C[C@@]1(C(=O)N[C@@H](CCC(=O)O)C(=O)O)CCCN1C(=O)CN [Example G-2-MePE, Glycyl-L-2-methylprolyl-L-glutamic acid] (H-Gly-[αMeP]-Glu-OH)
frequency and amplitude of spontaneous post-synaptic currents (1 week treatment): normalizes
frequency of calcium transients (1 week treatment): normalizes
VGLUT1 puncta number (all concentrations, 1 week): increase
glutamatergic synapse numbers (for 1 week, vs non-treated RTT controls): significant increase
